One block for each compound: values may come before it. Active and inactive are the calls of the source.
What was measured:
[1] = test system: HEK293; experiment: optical interference in Abeta FP readout, dose response, artefact control for IDE activator project, biochemical, fluorescence polarization (AID 588442); type: functional, cell-based; details: Homo sapiens
[2] = target: T1, Insulin-degrading enzyme (Homo sapiens, UniProt P14735); experiment: cellular IDE activation of Abeta substrate cleavage – fluorescence polarization, HEK cells, dose response (AID 588439); type: functional, cell-based
T1 sequence (P14735 whole entry): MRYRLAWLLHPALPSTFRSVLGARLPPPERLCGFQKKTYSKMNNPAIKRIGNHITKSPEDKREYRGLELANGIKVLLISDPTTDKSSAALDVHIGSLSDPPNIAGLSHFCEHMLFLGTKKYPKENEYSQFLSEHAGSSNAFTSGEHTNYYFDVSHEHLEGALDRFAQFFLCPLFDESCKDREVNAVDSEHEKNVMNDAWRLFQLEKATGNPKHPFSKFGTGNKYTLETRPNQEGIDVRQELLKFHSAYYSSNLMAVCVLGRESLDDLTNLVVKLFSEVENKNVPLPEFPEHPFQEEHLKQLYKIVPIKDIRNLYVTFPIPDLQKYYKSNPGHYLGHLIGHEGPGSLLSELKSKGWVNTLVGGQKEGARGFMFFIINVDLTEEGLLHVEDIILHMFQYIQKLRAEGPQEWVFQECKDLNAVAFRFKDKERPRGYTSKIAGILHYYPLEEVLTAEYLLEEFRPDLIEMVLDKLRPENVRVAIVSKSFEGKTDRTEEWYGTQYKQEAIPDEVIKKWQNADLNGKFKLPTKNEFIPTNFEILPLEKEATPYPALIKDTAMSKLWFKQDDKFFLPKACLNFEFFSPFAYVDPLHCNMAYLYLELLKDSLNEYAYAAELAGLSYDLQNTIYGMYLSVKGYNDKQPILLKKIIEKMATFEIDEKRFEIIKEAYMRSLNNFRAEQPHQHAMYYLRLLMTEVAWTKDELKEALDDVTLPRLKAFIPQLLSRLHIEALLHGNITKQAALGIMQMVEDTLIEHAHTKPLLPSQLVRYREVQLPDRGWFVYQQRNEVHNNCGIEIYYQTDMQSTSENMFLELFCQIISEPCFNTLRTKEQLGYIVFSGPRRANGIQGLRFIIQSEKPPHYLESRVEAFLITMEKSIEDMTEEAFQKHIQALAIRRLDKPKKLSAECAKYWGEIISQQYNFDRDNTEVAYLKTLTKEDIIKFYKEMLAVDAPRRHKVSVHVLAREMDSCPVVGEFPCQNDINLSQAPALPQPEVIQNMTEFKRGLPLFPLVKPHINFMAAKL

[3] = target: T1, Insulin-degrading enzyme; experiment: recombinant IDE activation, cell-free – biochemical, fluorescence polarization, counter-screen for IDE activator project, dose response (AID 588681)
[4] = test system: HEK293; experiment: membrane integrity loss in HEK cells – cell-based, fluorescence, cytotoxicity control for IDE activator project, dose response (AID 588440); type: functional; details: Homo sapiens;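 also: cytotoxicity by LDH release measuring loss of membrane integrity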
[5] = target: T2, Probable nicotinate-nucleotide adenylyltransferase (Staphylococcus aureus (strain N315), UniProt P65502); type: functional, Staphylococcus aureus subsp. aureus N315;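 as to IC50 Mean: confirmatory dose-response retesting of NadD inhibitor hits first found in an ultra-high-throughput screen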
[6] = target: Nucleotide-binding oligomerization domain-containing protein 2 (Homo sapiens, UniProt Q9HC29); experiment: inhibition of NOD2-driven NF-kB reporter – cell-based, luminescence, uHTS, HEK293 (AID 1566); type: functional
[7] = test system: HEK293; experiment: cells; type: functional, cell-based; details: Homo sapiens
[8] = test system: HEK293; experiment: cells; type: functional, cell-based; details: Homo sapiens; remark: listed apart in the source
[9] = test system: HEK293; experiment: NOD2 signaling inhibitors in MDP-stimulated cells, cell-based, uHTS, luminescence (AID 2001); type: functional; details: Homo sapiens
[10] = test system: HEK293; experiment: cells; type: functional, cell-based; details: Homo sapiens; remark: listed apart in the source
[11] = target: T2, Probable nicotinate-nucleotide adenylyltransferase; type: functional, Staphylococcus aureus subsp. aureus N315; details: read-out: IC50_Mean
[12] = test system: HEK293; experiment: inhibition of NOD1-driven NF-kB reporter – cell-based, luminescence, uHTS, primary screen (AID 1578); type: functional; details: Homo sapiens
[13] = target: T3, Sentrin-specific protease 8 (Homo sapiens, UniProt Q96LD8); type: functional
T3 sequence (Q96LD8 whole entry): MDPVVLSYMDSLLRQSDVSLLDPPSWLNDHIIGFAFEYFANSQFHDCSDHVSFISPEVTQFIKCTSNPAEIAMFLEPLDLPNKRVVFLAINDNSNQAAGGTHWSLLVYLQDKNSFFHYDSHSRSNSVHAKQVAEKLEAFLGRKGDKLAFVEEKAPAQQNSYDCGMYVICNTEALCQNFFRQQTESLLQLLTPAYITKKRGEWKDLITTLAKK

[14] = target: T3, Sentrin-specific protease 8; type: functional; remark: listed apart in the source
[15] = target: T3, Sentrin-specific protease 8; experiment: inhibition of human SENP8 cleavage activity – biochemical, luminescence, SAR follow-up (AID 504501); type: functional
[16] = target: T4, Sentrin-specific protease 6 (Homo sapiens, UniProt Q9GZR1); experiment: SAR Analysis of small molecule inhibitors of Sentrin-specific protease 6 (SENP6) using a Luminescent assay. [Related pubchem assays (depositor defined):AID2582, AID2599]; type: functional
T4 sequence (Q9GZR1 whole entry): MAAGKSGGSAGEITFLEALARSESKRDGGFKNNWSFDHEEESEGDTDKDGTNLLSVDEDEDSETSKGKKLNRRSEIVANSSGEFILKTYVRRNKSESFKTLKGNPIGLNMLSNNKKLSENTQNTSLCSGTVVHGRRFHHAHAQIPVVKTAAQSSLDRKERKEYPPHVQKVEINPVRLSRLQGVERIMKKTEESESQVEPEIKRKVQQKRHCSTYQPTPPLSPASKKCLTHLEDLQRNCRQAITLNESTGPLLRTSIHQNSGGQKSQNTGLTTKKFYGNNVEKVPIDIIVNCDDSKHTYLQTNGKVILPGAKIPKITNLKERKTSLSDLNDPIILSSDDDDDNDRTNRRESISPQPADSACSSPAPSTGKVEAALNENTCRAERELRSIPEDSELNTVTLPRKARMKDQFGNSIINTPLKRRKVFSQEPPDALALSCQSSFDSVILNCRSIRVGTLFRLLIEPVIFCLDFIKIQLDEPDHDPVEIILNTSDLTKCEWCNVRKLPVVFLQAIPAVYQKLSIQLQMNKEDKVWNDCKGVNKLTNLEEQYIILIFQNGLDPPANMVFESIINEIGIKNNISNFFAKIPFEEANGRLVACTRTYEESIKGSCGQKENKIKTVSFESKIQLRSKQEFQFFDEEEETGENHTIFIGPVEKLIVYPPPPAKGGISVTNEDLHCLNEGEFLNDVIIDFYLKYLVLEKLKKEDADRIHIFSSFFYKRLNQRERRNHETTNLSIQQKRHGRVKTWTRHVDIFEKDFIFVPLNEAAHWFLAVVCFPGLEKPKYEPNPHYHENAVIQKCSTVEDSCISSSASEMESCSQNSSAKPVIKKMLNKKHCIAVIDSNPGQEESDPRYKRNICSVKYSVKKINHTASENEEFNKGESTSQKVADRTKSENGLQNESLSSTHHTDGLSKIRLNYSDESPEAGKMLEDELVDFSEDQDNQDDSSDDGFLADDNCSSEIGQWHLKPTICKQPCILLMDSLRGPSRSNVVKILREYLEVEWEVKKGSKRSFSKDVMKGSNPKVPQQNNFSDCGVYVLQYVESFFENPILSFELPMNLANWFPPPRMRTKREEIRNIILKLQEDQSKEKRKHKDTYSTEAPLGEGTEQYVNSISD

[17] = target: T5, Caspase-3 (Homo sapiens, UniProt P42574); experiment: SAR Analysis of small molecule inhibitors of Sentrin-specific proteases (SENPs) using a Caspase-3 Selectivity assay. [Related pubchem assays (depositor defined):AID2540, AID2599, AID434973, AID489001]; type: functional
T5 sequence (P42574 whole entry): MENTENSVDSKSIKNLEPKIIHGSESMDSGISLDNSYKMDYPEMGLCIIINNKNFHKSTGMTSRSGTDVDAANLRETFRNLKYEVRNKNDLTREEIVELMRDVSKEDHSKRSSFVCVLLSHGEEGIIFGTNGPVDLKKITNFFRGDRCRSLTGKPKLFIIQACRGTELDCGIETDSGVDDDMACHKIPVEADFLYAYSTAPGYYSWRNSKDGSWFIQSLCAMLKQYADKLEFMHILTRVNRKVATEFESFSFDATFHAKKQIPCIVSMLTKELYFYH

[18] = target: T6, Sentrin-specific protease 7 (Homo sapiens, UniProt Q9BQF6); experiment: inhibition of human SENP7 cleavage activity – biochemical, luminescence, SAR follow-up (AID 504497); type: functional
T6 sequence (Q9BQF6 whole entry): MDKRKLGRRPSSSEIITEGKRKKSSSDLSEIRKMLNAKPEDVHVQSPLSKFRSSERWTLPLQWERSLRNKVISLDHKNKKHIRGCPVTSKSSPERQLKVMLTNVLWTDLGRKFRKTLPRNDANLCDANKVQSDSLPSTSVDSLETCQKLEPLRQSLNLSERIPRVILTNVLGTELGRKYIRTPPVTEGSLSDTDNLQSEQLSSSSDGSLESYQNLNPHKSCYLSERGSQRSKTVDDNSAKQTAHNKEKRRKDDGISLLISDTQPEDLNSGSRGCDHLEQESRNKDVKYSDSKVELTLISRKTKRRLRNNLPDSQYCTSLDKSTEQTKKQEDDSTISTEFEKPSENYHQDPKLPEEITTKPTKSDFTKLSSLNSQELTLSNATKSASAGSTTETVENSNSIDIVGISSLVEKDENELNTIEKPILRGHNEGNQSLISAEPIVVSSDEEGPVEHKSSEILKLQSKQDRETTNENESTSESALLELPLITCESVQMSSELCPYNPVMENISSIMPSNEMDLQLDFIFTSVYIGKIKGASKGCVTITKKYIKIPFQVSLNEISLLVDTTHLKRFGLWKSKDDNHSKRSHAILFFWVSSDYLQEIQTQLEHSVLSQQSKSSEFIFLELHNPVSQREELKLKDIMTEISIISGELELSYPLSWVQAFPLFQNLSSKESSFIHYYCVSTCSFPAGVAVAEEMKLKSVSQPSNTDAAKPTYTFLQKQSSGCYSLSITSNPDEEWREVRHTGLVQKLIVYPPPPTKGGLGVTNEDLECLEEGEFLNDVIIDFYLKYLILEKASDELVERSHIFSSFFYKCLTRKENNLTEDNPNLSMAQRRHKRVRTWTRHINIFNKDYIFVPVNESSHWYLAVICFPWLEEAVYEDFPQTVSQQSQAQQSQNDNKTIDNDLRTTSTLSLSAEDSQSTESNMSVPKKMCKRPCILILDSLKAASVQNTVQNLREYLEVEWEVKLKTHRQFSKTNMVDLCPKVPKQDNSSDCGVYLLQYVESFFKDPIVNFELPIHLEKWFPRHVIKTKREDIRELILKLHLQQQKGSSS

[19] = target: Hepatocyte nuclear factor 4-alpha (Homo sapiens, UniProt P41235); type: functional, cell-based;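 also: biochemical luminescence-based dose-response counterscreen measuring inhibition of HNF4 dimerization, run alongside a screen for blockers of ABHD5–perilipin-5 interaction; split luciferase complementation of HNF4 fusion proteins in cell lysate measuring dimerization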
Hepatocyte nuclear factor 4-alpha, sequence (P41235 whole entry, the tested form may be a part): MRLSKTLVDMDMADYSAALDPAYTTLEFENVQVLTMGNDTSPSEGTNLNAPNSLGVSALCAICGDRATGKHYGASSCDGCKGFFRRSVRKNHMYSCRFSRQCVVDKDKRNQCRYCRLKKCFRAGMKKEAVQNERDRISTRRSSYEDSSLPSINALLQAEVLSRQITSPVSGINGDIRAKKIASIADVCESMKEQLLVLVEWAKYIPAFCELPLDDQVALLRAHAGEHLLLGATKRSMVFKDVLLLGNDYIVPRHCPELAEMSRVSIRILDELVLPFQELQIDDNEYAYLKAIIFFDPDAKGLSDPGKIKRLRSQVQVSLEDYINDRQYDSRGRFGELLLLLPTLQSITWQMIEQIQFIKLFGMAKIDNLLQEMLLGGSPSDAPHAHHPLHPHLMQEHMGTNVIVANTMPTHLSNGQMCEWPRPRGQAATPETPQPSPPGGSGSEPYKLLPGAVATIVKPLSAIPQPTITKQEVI

Nucleotide-binding oligomerization domain-containing protein 2, sequence (Q9HC29 whole entry, the tested form may be a part): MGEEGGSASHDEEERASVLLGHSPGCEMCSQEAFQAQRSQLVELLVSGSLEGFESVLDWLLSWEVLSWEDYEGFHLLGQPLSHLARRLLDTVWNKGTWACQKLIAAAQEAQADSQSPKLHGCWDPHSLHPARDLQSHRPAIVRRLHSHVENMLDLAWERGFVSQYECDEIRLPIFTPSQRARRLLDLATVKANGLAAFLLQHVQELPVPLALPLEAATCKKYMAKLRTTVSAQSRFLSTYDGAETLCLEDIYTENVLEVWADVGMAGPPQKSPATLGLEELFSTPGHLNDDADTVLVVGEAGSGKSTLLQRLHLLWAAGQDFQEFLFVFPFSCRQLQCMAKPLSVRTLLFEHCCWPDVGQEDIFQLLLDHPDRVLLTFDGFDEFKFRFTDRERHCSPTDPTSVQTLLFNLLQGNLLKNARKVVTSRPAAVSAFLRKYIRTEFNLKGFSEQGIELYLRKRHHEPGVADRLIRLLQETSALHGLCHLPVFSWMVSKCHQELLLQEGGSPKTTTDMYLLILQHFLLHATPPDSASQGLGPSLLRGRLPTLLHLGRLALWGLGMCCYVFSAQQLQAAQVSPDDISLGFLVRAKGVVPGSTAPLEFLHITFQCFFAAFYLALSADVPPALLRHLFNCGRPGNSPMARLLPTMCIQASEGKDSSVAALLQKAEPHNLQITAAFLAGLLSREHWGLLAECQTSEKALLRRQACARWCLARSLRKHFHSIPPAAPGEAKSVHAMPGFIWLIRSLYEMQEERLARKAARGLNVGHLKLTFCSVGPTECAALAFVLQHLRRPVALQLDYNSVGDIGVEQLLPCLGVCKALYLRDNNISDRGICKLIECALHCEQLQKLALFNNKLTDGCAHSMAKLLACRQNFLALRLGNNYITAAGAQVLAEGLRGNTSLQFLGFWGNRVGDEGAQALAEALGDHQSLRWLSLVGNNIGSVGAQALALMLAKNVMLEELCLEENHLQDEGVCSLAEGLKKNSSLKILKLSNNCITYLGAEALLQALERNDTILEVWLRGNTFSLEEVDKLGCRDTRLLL

SMILES: O=C(c1cnn(C(=O)c2ccco2)c1)c1cc(F)ccc1O
EC50 [1]: > 54.7 µM (inactive) | EC50 [2]: > 54.7 µM (inactive) | EC50 [3]: > 54.7 µM (inactive) | IC50 [4]: > 89.1 µM (inactive)

SMILES: CC(OC(=O)c1ccc(Cl)nc1)C(=O)NC1(C#N)CCCCC1 (stereo unspecified)
EC50 [1]: > 54.7 µM (inactive) | EC50 [2]: > 54.7 µM (inactive) | EC50 [3]: > 54.7 µM (inactive) | IC50 [4]: > 89.3 µM (inactive)

SMILES: Cc1ccc(NS(=O)(=O)c2cc(NC(=O)c3ccc4c(c3)NC(=O)CS4)ccc2Cl)c(C)c1
IC50 [5]: 19.5 µM (active) | EC50 [6]: 14.3 µM (active) | IC50 [7]: > 20 µM (inactive) | IC50 [8]: 6.3 µM (active) | IC50 [9]: 7.17 µM (inactive) | IC50 [10]: 11.5 µM (active) | IC50 [11]: 48.8 µM (active) | EC50 [12]: 6.38 µM (active)

SMILES: COc1ccccc1NC(=O)c1cn(C)c(=O)c2cc(OC)c(OC)cc12
IC50 [13]: 48.1 µM (active) | IC50 [14]: 10.2 µM (active)

IC50 [16]: 0.66 µM (active) | IC50 [17]: 0.48 µM (active) | IC50 [18]: 0.75 µM (active)
SMILES: Cc1ccsc1C(=O)Nc1nc2ccc(Cl)cc2s1
IC50 [15]: 0.62 µM (active)

IC50 [16]: 32.4 µM (active) | IC50 [17]: > 99 µM (inactive) | IC50 [18]: 63 µM (active)
SMILES: COc1ccc(C2C(C#N)=C(N)Oc3c2c(C)nn3-c2ccccc2)cc1 (stereo unspecified)
IC50 [15]: > 99 µM (inactive)

IC50 [16]: > 99 µM (inactive) | IC50 [17]: > 99 µM (inactive) | IC50 [18]: > 99 µM (inactive)
SMILES: C(=C\c1nc(-c2ccc(N3CCOCC3)cc2)no1)/c1ccccc1
IC50 [15]: > 99 µM (inactive)

IC50 [19]: 6.14 µM (active)
SMILES: O=C1CC(c2ccc(Cl)cc2)Oc2ccc(Cl)cc21 (stereo unspecified)

— ChEMBL document CHEMBL1201862, “PubChem BioAssay data set” (2004)
